# Molecular target: mitochondrial RNA-polymerase (POLRMT) (Mus musculus, UniProt Q8BKF1)
# Assay: Homogeneous TR-FRET assay for mitochondrial transcription activity
# Format: biochemical
# Conditions: homogeneous TR-FRET assay according to Example 4; activity class
# From the text: The TR-FRET assay was basically conducted as described in WO2016/193,231A1, especially as described in example 1 (hereby incorporated by reference). With respect to the background of the mitochondrial transcription it is referred to Falkenberg et al. (2002) and Posse et al. (Posse et al., 2015). The method monitors the activity of mitochondrial RNA-polymerase via detection of the formation of its product, a 407 bp long RNA sequence. Detection of the product is facilitated by hybridization of two DNA-oligonucleotide probes to specific and adjacent sequences within the RNA product sequence. Upon annealing of the probes, two fluorophores that are coupled directly to an acceptor nucleotide probe (ATT0647, 5′) or introduced via a coupled streptavidin interacting with a biotinylated donor nucleotide probe on the other side (Europium cryptate, 3′) are brought into sufficient proximity to serve as a fluorescence-donor-acceptor pair as generally described in Walters and Namchuk (2003). Thus, a FRET signal at 665 nm is generated upon excitation at 340 nm.
# Briefly, the protocol described here was applied for screening and activity determination in a low-volume 384-well microtiter plate with non-binding surface. For high-throughput application in the 1536-well microtiter plate format, volumes of the reagent mixes were adjusted, maintaining the volumetric ratio. Proteins POLRMT (NM_172551.3), TFAM (NM_009360.4) and TFB2 M (NM_008249.4) were diluted from their stocks to working concentrations of 150 nM, 1.8 μM and 330 nM respectively, in a dilution buffer containing 100 mM Tris-HCl pH 8.0, 200 mM NaCl, 10% (v/v) glycerole, 2 mM glutathione (GSH), 0.5 mM EDTA and 0.1 mg/mL BSA. Protein dilutions and template DNA, comprising a pUC18 plasmid encoding the mitochondrial light strand promoter, restriction linearized proximal to the promoter 3′-end (pUC-LSP), were mixed at the twofold final assay-concentration in a reaction buffer, containing 10 mM Tris-HCl pH 7.5, 10 mM MgCl2, 40 mM NaCl, 2 mM GSH, 0.01% (w/v) Tween-20 and 0.1 mg/mL BSA.
# 5 μL of this mix were dispensed, depending on the chosen microtiter plate format, using multi-channel pipettes or a Multidrop® dispenser (Thermo Fisher Scientific, Waltham Mass.) into the wells of a microtiter plate and incubated at room temperature (RT) for 10 min. Chemical compounds under scrutiny in the assay were applied using contact-free acoustic droplet-dispensing (Echo520® Labcyte Inc., Sunnyvale Calif.) from 10 mM compound stocks in 100% DMSO, to a final concentration of 10 μM or in serial dilution series of the required concentration range. Equal amounts of DMSO without any compound were added to positive control samples, followed by an incubation step at RT for 10 min.
# The enzymatic reaction was started by the addition of 5 μL of a mix of […] in reaction buffer to a final concentration of 500 μM each. No nucleotide mix was added to negative control samples. The content of the wells was mixed using a VarioTeleshaker™ (Thermo Fisher Scientific, Waltham Mass.) at 1,500 rpm for 45 sec after which the microtiter plate was centrifuged at 500×g for 1 min. The samples were incubated for 2 h at RT with humidity control to avoid evaporation. The detection reagents were prepared in a buffer that was composed, such that the enzymatic reaction was terminated due to chelating of Mg-ions and increased ionic strength, containing 50 mM Tris-HCl pH 7.5, 700 mM NaCl, 20 mM EDTA, and 0.01% (w/v) Tween-20. Importantly Eu-cryptate-coupled streptavidin had to be pre-incubated with a 100-fold molar excess of a random sequence oligonucleotide for 10 min at RT in the dark to block unspecific binding of single stranded RNA to the protein. Subsequently, the blocked streptavidin(—Eu) was mixed with the DNA-probes on ice and kept away from light until use. […]
# mitochondrial RNA-polymerase (POLRMT), sequence (Q8BKF1 42-1207): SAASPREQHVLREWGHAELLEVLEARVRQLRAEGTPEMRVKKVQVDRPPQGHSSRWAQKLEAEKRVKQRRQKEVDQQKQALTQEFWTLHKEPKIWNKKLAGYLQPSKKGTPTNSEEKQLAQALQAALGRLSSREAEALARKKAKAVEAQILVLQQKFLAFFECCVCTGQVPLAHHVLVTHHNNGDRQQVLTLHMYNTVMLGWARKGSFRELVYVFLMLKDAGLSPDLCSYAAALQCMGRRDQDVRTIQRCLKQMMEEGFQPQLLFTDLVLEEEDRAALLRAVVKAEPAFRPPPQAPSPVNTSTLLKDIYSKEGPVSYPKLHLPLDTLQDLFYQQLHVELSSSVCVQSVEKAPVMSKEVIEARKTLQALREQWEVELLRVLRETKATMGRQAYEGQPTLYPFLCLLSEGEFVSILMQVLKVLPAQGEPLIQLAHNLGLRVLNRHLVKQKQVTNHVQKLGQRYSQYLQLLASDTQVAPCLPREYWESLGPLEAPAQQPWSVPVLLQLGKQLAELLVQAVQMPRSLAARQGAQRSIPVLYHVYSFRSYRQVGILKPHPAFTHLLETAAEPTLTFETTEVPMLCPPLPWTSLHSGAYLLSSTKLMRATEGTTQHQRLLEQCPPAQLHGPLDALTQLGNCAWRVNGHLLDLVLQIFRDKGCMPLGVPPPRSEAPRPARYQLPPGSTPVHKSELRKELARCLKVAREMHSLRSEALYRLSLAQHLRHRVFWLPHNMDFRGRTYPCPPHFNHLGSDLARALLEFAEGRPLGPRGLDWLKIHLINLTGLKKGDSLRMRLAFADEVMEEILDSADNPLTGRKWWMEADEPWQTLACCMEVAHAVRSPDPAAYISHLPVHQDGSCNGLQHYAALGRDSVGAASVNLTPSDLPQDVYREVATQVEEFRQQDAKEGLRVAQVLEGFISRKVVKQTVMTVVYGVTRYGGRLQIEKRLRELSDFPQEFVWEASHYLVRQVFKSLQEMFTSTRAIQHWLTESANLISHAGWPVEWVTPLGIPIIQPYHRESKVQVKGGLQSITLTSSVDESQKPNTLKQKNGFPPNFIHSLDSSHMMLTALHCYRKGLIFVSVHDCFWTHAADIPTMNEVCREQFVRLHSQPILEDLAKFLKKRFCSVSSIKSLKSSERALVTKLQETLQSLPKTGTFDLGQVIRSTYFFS
row,SMILES,IC50
1,"COCCc1ccc(NC(=O)[C@@H](C)Oc2ccc3c(-c4ccc(F)cc4Cl)cc(=O)oc3c2)cc1 [Compound 140, (2R)-2-[4-(2-chloro-4-fluoro-phenyl)-2-oxo-chromen-7-yl]oxy-N-[4-(2-methoxyethyl)phenyl]propanamide]",100 to 1000 nM
2,"COC(=O)C[C@@H]1CCCN(C(=O)[C@@H](C)Oc2ccc3c(-c4ccccc4Cl)cc(=O)oc3c2)C1 [Compound 100, methyl 2-[(3S)-1-[(2R)-2-[4-(2-chlorophenyl)-2-oxo-chromen-7-yl]oxypropanoyl]-3-piperidyl]acetate]",< 20 nM
3,"CCOC(=O)C1(C)CCCN(C(=O)C(C)Oc2ccc3c(-c4ccccc4Cl)cc(=O)oc3c2)C1 (stereo not shown) [Compound 75, ethyl 1-[2-[4-(2-chlorophenyl)-2-oxo-chromen-7-yl]oxypropanoyl]-3-methyl-piperidine-3-carboxylate]",20 to 100 nM
4,"CC(Oc1ccc2c(-c3ccccc3Cl)cc(=O)oc2n1)C(=O)N1CCC[C@H](C(=O)OC(C)(C)C)C1 (mixture of isomers) [Compound 171, tert-butyl rac-(3S)-1-[2-[4-(2-chlorophenyl)-2-oxo-pyrano[2,3-b]pyridin-7-yl]oxypropanoyl]piperidine-3-carboxylate]",100 to 1000 nM
5,"CC(Oc1ccc2c(-c3ccccc3Cl)cc(=O)oc2c1)C(=O)Nc1ccccn1 (stereo not shown) [Compound 31, 2-[4-(2-chlorophenyl)-2-oxo-chromen-7-yl]oxy-N-(2-pyridyl)propanamide]",< 20 nM
6,"CC(Oc1ccc2c(-c3ccccc3Cl)cc(=O)oc2c1)C(=O)N1CCC(S(N)(=O)=O)C1 (stereo not shown) [Compound 77, 1-[2-[4-(2-chlorophenyl)-2-oxo-chromen-7-yl]oxypropanoyl]pyrrolidine-3-sulfonamide]",20 to 100 nM
7,"CC(Oc1ccc2c(-c3ccccc3Cl)cc(=O)oc2c1)C(=O)O (stereo not shown) [Compound 96, 2-[4-(2-chlorophenyl)-2-oxo-chromen-7-yl]oxypropanoic acid]",100 to 1000 nM
8,"CCOC(=O)C(C)Oc1ccc2c(-c3ccccc3F)cc(=O)oc2c1 (stereo not shown) [Compound 175, ethyl 2-[4-(2-fluorophenyl)-2-oxo-chromen-7-yl]oxypropanoate]",100 to 1000 nM
9,"Cc1ccccc1-c1cc(=O)oc2cc(O[C@H](C)C(=O)N3CCC[C@H](C#N)C3)ccc12 [Compound 32, (3S)-1-[(2R)-2-[4-(o-tolyl)-2-oxo-chromen-7-yl]oxypropanoyl]piperidine-3-carbonitrile]",< 20 nM
10,"CCOC(=O)C(C)Oc1ccc2c(-c3cccc(F)c3Cl)cc(=O)oc2c1 (stereo not shown) [Compound 57, ethyl 2-[4-(2-chloro-3-fluoro-phenyl)-2-oxo-chromen-7-yl]oxypropanoate]",20 to 100 nM
11,"C[C@@H](Oc1ccc2c(-c3ccc(F)cc3Cl)cc(=O)oc2c1)C(=O)Nc1ccnc(C(=O)O)c1 [Compound 160, 4-[[(2R)-2-[4-(2-chloro-4-fluoro-phenyl)-2-oxo-chromen-7-yl]oxypropanoyl]amino]pyridine-2-carboxylic acid]",< 20 nM
12,"Cc1ccccc1-c1cc(=O)oc2cc(OC(C)C(=O)N3CCC(CC(=O)O)CC3)ccc12 (stereo not shown) [Compound 60, 2-[1-[2-[4-(o-tolyl)-2-oxo-chromen-7-yl]oxypropanoyl]-4-piperidyl]acetic acid]",20 to 100 nM
13,"Cc1ccccc1-c1cc(=O)oc2cc(OC(C)C(=O)N3CCCC(CC(=O)O)C3)ccc12 (stereo not shown) [Compound 72, 2-[1-[2-[4-(o-tolyl)-2-oxo-chromen-7-yl]oxypropanoyl]-3-piperidyl]acetic acid]",20 to 100 nM
14,"CCOC(=O)[C@H]1CCCN(C(=O)C(C)Oc2ccc3c(-c4ccccc4C)cc(=O)oc3c2)C1 (stereo partly drawn) [Compound 17, ethyl (3S)-1-[2-[4-(o-tolyl)-2-oxo-chromen-7-yl]oxypropanoyl]piperidine-3-carboxylate]",< 20 nM

# Other lines, results leading:
row,IC50,SMILES
1,< 20 nM,"CC(Oc1ccc2c(-c3cccc(F)c3Cl)cc(=O)oc2c1)C(=O)N1CCC[C@H](C(=O)O)C1 (stereo partly drawn) [Compound 50, (3S)-1-[2-[4-(2-chloro-3-fluoro-phenyl)-2-oxo-chromen-7-yl]oxypropanoyl]piperidine-3-carboxylic acid]"
2,< 20 nM,"COC(=O)C1CCN(C(=O)[C@@H](C)Oc2ccc3c(-c4ccc(F)cc4Cl)cc(=O)oc3c2)CC1 [Compound 129, methyl 1-[(2R)-2-[4-(2-chloro-4-fluoro-phenyl)-2-oxo-chromen-7-yl]oxypropanoyl]piperidine-4-carboxylate]"
3,< 20 nM,"CC(C)NC(=O)C(C)Oc1ccc2c(-c3cccc(F)c3Cl)cc(=O)oc2c1 (stereo not shown) [Compound 49, 2-[4-(2-chloro-3-fluoro-phenyl)-2-oxo-chromen-7-yl]oxy-N-isopropyl-propanamide]"
4,100 to 1000 nM,"COC(=O)C1CN(C(=O)[C@@H](C)Oc2ccc3c(-c4ccc(F)cc4Cl)cc(=O)oc3c2)CCN1C (mixture of isomers) [Compound 137, methyl 1-methyl-4-[rac-(2R)-2-[4-(2-chloro-4-fluoro-phenyl)-2-oxo-chromen-7-yl]oxypropanoyl]piperazine-2-carboxylate]"
5,< 20 nM,"Cc1ccccc1-c1cc(=O)oc2cc(OC(C)C(=O)N3CC[C@H](C(=O)O)C3)ccc12 (stereo partly drawn) [Compound 22, (3S)-1-[2-[4-(o-tolyl)-2-oxo-chromen-7-yl]oxypropanoyl]pyrrolidine-3-carboxylic acid]"
6,1000 to 5000 nM,"CCOC(=O)C(C)Oc1ccc2c(-c3c(F)cccc3F)cc(=O)oc2c1 (stereo not shown) [Compound 176, ethyl 2-[4-(2,6-difluorophenyl)-2-oxo-chromen-7-yl]oxypropanoate]"
7,20 to 100 nM,"Cc1ccccc1-c1cc(=O)oc2cc(OC(C)C(=O)N3CCC(S(N)(=O)=O)C3)ccc12 (stereo not shown) [Compound 63, 1-[2-[4-(o-tolyl)-2-oxo-chromen-7-yl]oxypropanoyl]pyrrolidine-3-sulfonamide]"
8,20 to 100 nM,"Cc1ccccc1-c1cc(=O)oc2cc(OC(C)C(=O)N3CCC(F)(F)CC3)ccc12 (stereo not shown) [Compound 71, 7-[2-(4,4-difluoro-1-piperidyl)-1-methyl-2-oxo-ethoxy]-4-(o-tolyl)chromen-2-one]"
9,< 20 nM,"Cc1ccccc1-c1cc(=O)oc2cc(OC(C)C(=O)N3CCCC(C#N)C3)ccc12 (stereo not shown) [Compound 41, 1-[2-[4-(o-tolyl)-2-oxo-chromen-7-yl]oxypropanoyl]piperidine-3-carbonitrile]"
10,< 20 nM,"COC(=O)C1CCCN(C(=O)C(C)Oc2ccc3c(-c4ccccc4Cl)cc(=O)oc3c2)C1 (stereo not shown) [Compound 7, methyl 1-[2-[4-(2-chlorophenyl)-2-oxo-chromen-7-yl]oxypropanoyl]piperidine-3-carboxylate]"
11,< 20 nM,"Cc1ccccc1-c1cc(=O)oc2cc(OC(C)C(=O)Nc3ccccn3)ccc12 (stereo not shown) [Compound 4, 2-[4-(o-tolyl)-2-oxo-chromen-7-yl]oxy-N-(2-pyridyl)propanamide]"
12,20 to 100 nM,"CC(Oc1ccc2c(-c3ccccc3Cl)cc(=O)oc2c1)C(=O)N1CCC(F)(F)CC1 (stereo not shown) [Compound 74, 4-(2-chlorophenyl)-7-[2-(4,4-difluoro-1-piperidyl)-1-methyl-2-oxo-ethoxy]chromen-2-one]"
13,< 20 nM,"Cc1ccccc1-c1cc(=O)oc2cc(OC(C)C(=O)N3CCCC3)ccc12 (stereo not shown) [Compound 5, 7-(1-methyl-2-oxo-2-pyrrolidin-1-yl-ethoxy)-4-(o-tolyl)chromen-2-one]"
14,20 to 100 nM,"C[C@@H](Oc1ccc2c(-c3ccc(F)cc3Cl)cc(=O)oc2c1)C(=O)N1CCN[C@H](C(=O)O)C1 [Compound 138, (2S)-4-[(2R)-2-[4-(2-chloro-4-fluoro-phenyl)-2-oxo-chromen-7-yl]oxypropanoyl]piperazine-2-carboxylic acid]"
